Data on 11 compounds can be found in ChEMBL document CHEMBL3286153, “Evaluation of the antiviral efficacy of bis[1,2]dithiolo[1,4]thiazines and bis[1,2]dithiolopyrrole derivatives against the nucelocapsid protein of the Feline Immunodeficiency Virus (FIV) as a model for HIV infection” (Bioorg Med Chem Lett, 2014).

A short description of series [1]: Cytotoxicity against cat CRFK cells assessed as cell viability at 10 uM after 24 hrs by MTT assay. The conditions noted are these: read-out: Activity. The format is cell-based, Felis catus. Background: Tetrazolium dyes change colour on reduction, which living cells bring about.
Series [2] in a line: Cytotoxicity against cat CRFK cells assessed as cell viability after 7 days by MTT assay. The conditions noted are these: for CC50 at 168 h: CRFK cells; for CC50: crfk, 168 h. The format is cell-based, Felis catus.
Series [3] concerns Feline immunodeficiency virus. As to the kind of experiment: Antiviral activity against Feline immunodeficiency virus infected in cat FL-4 cells assessed as viral RNA production by RT-qPCR. The format is functional, organism-based. On the technique in general: Real-time PCR tracks product formation cycle by cycle.
A short description of series [4]: Therapeutic index, ratio of CC50 for cat CRFK cells to EC50 for Feline immunodeficiency virus infected in cat FL-4 cells. The format is cell-based. The conditions noted are these: for selectivity ratio: read-out: Ratio CC50/EC50; for Ratio CC50/EC50: crfk.
The mark [5] stands for this setting: Feline immunodeficiency virus, FL-4, read-out: EC50.

In general, CC50 refers to the concentration giving 50% cytotoxicity. Broadly, the EC50 is the midpoint of the concentration-response curve. Regarding `CCN1c2c(ssc2=S)Sc2ssc(=S)c21`, the viability at 24 h, 10 µM in series [1] was determined as 98.8%. The CC50 at 168 h in series [2] amounted to 0.031 µM. Also, in series [3] (setting [5]), the EC50 was < 0.001 µM. In addition, the selectivity ratio in series [4] is > 31.
Regarding `CCn1c2c(=S)ssc2c2ssc(=S)c21`, the viability at 24 h, 10 µM in series [1] was > 100%. Also, the CC50 at 168 h in series [2] amounted to 20.1 µM. Moreover, the EC50 in series [3] (setting [5]) worked out at 0.656 µM. Moreover, in series [4], the selectivity ratio was 30.6.
As to `O=C(O)CCN1c2c(ssc2=S)Sc2ssc(=S)c21`, the viability at 24 h, 10 µM in series [1] worked out at 97.2%. Also, the CC50 at 168 h in series [2] was 1.72 µM. The EC50 in series [3] (setting [5]) worked out at 0.379 µM. Besides, the selectivity ratio in series [4] was 4.5.
As for `CCN1c2c(ssc2=O)Sc2ssc(=O)c21`, the viability at 24 h, 10 µM in series [1] is 40.2%. The CC50 entry in series [2] was “ND(toxic)”. Further, the EC50 entry in series [3] (fl-4) is on record as “ND(toxic)”. Also, the “Ratio CC50/EC50” value in series [4] is reported as “ND(toxic)”.
In the case of `CCOC(=O)CCN1c2c(ssc2=O)Sc2ssc(=O)c21`, the viability at 24 h, 10 µM in series [1] is 76.8%. The CC50 at 168 h in series [2] was determined as 0.056 µM. In addition, the EC50 in series [3] (setting [5]) is 0.0162 µM. The selectivity ratio in series [4] is 3.5.
`CC(=O)OCCN1c2c(ssc2=O)Sc2ssc(=O)c21`: the viability at 24 h, 10 µM in series [1] worked out at 39.2%. Further, the CC50 result in series [2] is “ND(toxic)”. Moreover, in series [3] (fl-4), the EC50 entry is “ND(toxic)”. For the same compound, the “Ratio CC50/EC50” value in series [4] is given as “ND(toxic)”.
For the compound `CCN1c2c(ssc2=O)Sc2ssc(=S)c21`, in series [1], the viability at 24 h, 10 µM was > 100%. Also, the CC50 at 168 h in series [2] was > 10 µM. Moreover, the EC50 in series [3] (setting [5]) is 0.345 µM. Besides, the selectivity ratio in series [4] is > 29.
The like results for `CCOC(=O)CCN1c2c(ssc2=O)Sc2ssc(=S)c21` were, in that order, 91.2%, 2.27 µM, 0.642 µM and 3.5.
On to `CCOC(=O)CCn1c2c(=O)ssc2c2ssc(=O)c21`, for which, in series [1], the viability at 24 h, 10 µM came to 78.2%. The CC50 result in series [2] is on record as “ND(toxic)”. Moreover, in series [3] (fl-4), the EC50 entry is “ND(toxic)”. Further, the “Ratio CC50/EC50” value in series [4] is on record as “ND(toxic)”.
With `Cc1nnc(C(=O)NC(C)(C)c2nc(C(=O)NCc3ccc(F)cc3)c(O)c(=O)n2C)o1` [RALTEGRAVIR], the viability at 24 h, 10 µM in series [1] was > 100%. In series [2], the half-maximal cytotoxic concentration (CC50) at 168 h is > 100 µM. The EC50 in series [3] (setting [5]) amounted to 0.00998 µM. For the same compound, the selectivity ratio in series [4] was > 100000.
For `Cc1cn([C@H]2C[C@H](N=[N+]=[N-])[C@@H](CO)O2)c(=O)[nH]c1=O` [ZIDOVUDINE], in that order: > 100%, > 100 µM, 5.31 µM and > 18.8.
